In brackets after ≈: the same amount, converted by molar mass. Like-named read-outs stand apart in the source and are kept apart here.
What was measured:
MiaPaca2 tumor = experiment: MiaPaca2 subcutaneous tumor model in nude mice; type: in vivo, nude mice (NMRI-Foxn1 nu/nu); conditions: 500 mg/kg i.p. on alternating days
[1] = Toxicity in mice during the tumor study; conditions: 500 mg/kg i.p. on alternating days
Method: 1×10^7 tumor cells (PancTu-I and MiaPaca 2) were injected subcutaneously into the flank.
Tumors were grown to a size of 200 mm^3 before the treatment was started. Mice were treated on alternating days with 500 mg/kg*body weight (BW).

[2] = tested on: pancreatic primary tumors (Bo 70); experiment: Xenograft model of pancreatic primary tumors Bo 70; type: in vivo; conditions: Bo 70, observed for 23 days
Source text: (§1) However, the differences in tumor volumes were not statistically relevant, likely due to the short duration of the study and the slow growth rate of the tumors.

[3] = tested on: multicellular pancreatic tumor (Panc Tul or BxPC-3) spheroids; experiment: Pancreatic stem cell-like multicellular spheroid toxicity assay; type: cell-based; conditions: taurolidine 500 μM, compound 2250 1000 μM, 48 hours
Source text: Multicellular spheroids are composed of tumor cells growing in a 3-dimensional structure stimulating the growth, micro-environmental conditions and stem cell-like characteristics of real tumors. The multicellular tumor spheroid (MCTS) model compensates for many of the deficiencies seen in monolayer cultures. Spheroids on the scale of 200-500 μm develop chemical gradients of oxygen, nutrients, and catabolites, while having morphological and functional features similar to tumors. Therefore, assays utilizing the MCTS model allow for the assessment of drug penetration and are more predictive of in vivo success compared with monolayer cultures. MCTS assays are a tumor model system of intermediate complexity between standard monolayer and tumors in vivo.
Pancreatic tumor cells (Panc Tu-1, BxPC-3, Mia Paca-2, ASPC1) and pancreatic primary tumor cells (Bo80) were seeded in ultra-low adhesion plates in special stem cell media.
Pancreatic tumor cells (ASPC1, Mia Paca-2, Panc Tul, BxPC-3) and pancreatic primary tumor cells (Bo80) were raised in monolayer culture before seeding in ultra low adhesion plates under conditions of special stem cell media to form multicellular spheroids and passed through a cell strainer to exclude aggregates. […]

[4] = Half-life in human fresh blood in vitro by GC; type: in vitro ADME; conditions: 37° C.
[5] = tested on: human glioma cell line LN-229; experiment: Cytotoxicity assay in LN-229 cells (crystal violet); type: cell-based; conditions: for OD (absorbance at 540 nm; high values = high cell viability): 24 h; for EC50: Homo sapiens, LN-229, 24 h
Method: Cell lines: The human glioma cell line LN-229 was used as described previously (Rodak et al. 2005) as well as the human colon adenocarcinoma cell line SW480.
Cytotoxicity assay: Dissociated LN-229 cells were seeded into 96-well plates at a density of 10^4 cells per well in 100 μl of culture medium. […] Triplicate cultures were prepared for each sample. After 24 h of incubation at […], the remaining adherent viable cells were stained using crystal violet as described (Rodack et al. 2005). Cell viability was determined by measuring the absorbancy at 540 nm. The results are expressed as killing rate given by the difference between 100% of cells and percentage of cells surviving. EC50 values correspond to the concentration inducing 50% cell death.

[6] = tested on: cancers identified herein; experiment: Administration to patients having cancers (Example 5); type: in vivo; conditions: Example 5, present tense
Method: Each of these compounds is administered with Vitamin D3, a derivative, metabolite or analog thereof and the combination is found to increase the anti-tumor effects of the compounds.

[7] = Water solubility and isotonicity; type: physicochemical
Source text: In certain embodiments, no PVP necessary to increase the solubility. For example, a 3.2% solution 2250 is isotonic. This is an unexpected advantage over taurolidine.

Escherichia coli = experiment: Antibacterial activity against Escherichia coli; type: cell-based
PancTu I tumor = experiment: PancTu I subcutaneous tumor model in nude mice; type: in vivo, nude mice (NMRI-Foxn1 nu/nu); conditions: 500 mg/kg i.p. on alternating days
[8] = tested on: MRSA lines 188, 189, 193, 194 and 195; experiment: Punch plate tests against MRSA; type: cell-based
[9] = tested on: pancreas tumor cells (AsPC-1, BxPC-3 and HCT-116); experiment: Growth inhibition of pancreas tumor cells; type: cell-based; conditions: read-out: half-maximal concentration of growth inhibition
Method: The growth of pancreas tumor cells (AsPC-1, BxPC-3 and HCT-116) was inhibited by compound 2250 with a half-maximal concentration of 300 μM, which is considerably lower than the concentration needed to elicit cytotoxicity.

[10] = tested on: pancreatic primary tumors (Bo 73); experiment: Xenograft model of pancreatic primary tumors Bo 73; type: in vivo; conditions: Bo 73, observed for 15 days; differences not statistically relevant
Source text: as §1

[11] = tested on: tumor cell lines AsPC-1, BxPC-3 and HCT-116; experiment: Inhibition of cell viability in tumor cell lines; type: cell-based; conditions: read-out: Half-maximal inhibition of cell viability
Source text: These effects are similar to those observed in glioma cell line LN-229. The induction of cell death was due to apoptosis and necrosis (most likely necroptosis). […] Thus, there is a redox-directed mechanism of action.

Staphylococcus aureus = experiment: Antibacterial activity against Staphylococcus aureus; type: cell-based

## O=S1(=O)CCOCN1 [compound 2250, Tetrahydro1,4,5-oxathiazin-4-dioxide]
MiaPaca2 tumor
  decrease of MiaPaca2 tumor volume compared to control: over 3 fold
[1]
  toxic effect on the mice during the study: no toxic effect
[2]
  tumor volume compared to control: significantly reduce tumor volume compared to control
[3]
  effect on pancreatic stem cell like multicellular spheroid cultures: antineoplastic effect
[4]; After 1 hour
  concentration in human fresh blood: 50.6 ppm
[4]; After 2 hours
  concentration in human fresh blood: 47.6 ppm
[4]; After 20 hours
  concentration in human fresh blood: 38.6-39.0 ppm
[4]; Baseline Value
  concentration in human fresh blood: 49.0 ppm
[4]; human fresh blood, in vitro
  half-life at 49 ppm: > 24 h
[5]; 4 μg/ml
  OD (absorbance at 540 nm; high values = high cell viability): 1.477
[5]; 8 μg/ml
  OD (absorbance at 540 nm; high values = high cell viability): 1.527
[5]; 15.5 μg/ml
  OD (absorbance at 540 nm; high values = high cell viability): 1.482
[5]; 31 μg/ml
  OD (absorbance at 540 nm; high values = high cell viability): 1.482
[5]; 62.5 μg/ml
  OD (absorbance at 540 nm; high values = high cell viability): 0.372
[5]; 250 μg/ml
  OD (absorbance at 540 nm; high values = high cell viability): 0.120
[5]; 500 μg/ml
  OD (absorbance at 540 nm; high values = high cell viability): 0.141
[5]; 1000 μg/ml
  OD (absorbance at 540 nm; high values = high cell viability): 0.189
[5]; read-out: EC50 (concentration inducing 50% cell death), LN-229 cells, 24 h incubation
  EC50: 45 µg/mL (≈ 328 µM)
[5]; read-out: half-maximal concentration of inducing cell death EC50
  EC50: 50 µg/mL (≈ 365 µM)
[6]
  effectiveness in treating cancers in patients: effective in treating such cancers
  safety for use in patients: safe for use in patients
[7]
  solubility in water: very soluble in water
[7]; no PVP
  concentration of isotonic solution: 3.2%
Escherichia coli
  antibacterial activity: very high level of antibacterial activity
PancTu I tumor
  decrease of PancTu I tumor volume compared to control: about 2 fold
[8]
  activity in punch plate tests: highly active
[9]
  IC50: 300 µM
[10]
  relative tumor volume compared to control: further reduced relative tumor volume compared to control
[11]
  IC50: 750 to 1000 µM
Staphylococcus aureus; Staph. aureus
  antibacterial activity relative to Taurultam: about double as high as Taurultam
Staphylococcus aureus; Staphylococcus aureus
  antibacterial activity: very high level of antibacterial activity

Source: patent US10968190B2, “Processes for preparing oxathiazin-like compounds” (GEISTLICH PHARMA AG, priority 2014, dated 2021)
